Experimental data from patent US20250114374A1, “BCL-2 INHIBITORS” (Newave Pharmaceutical Inc., priority 2021, published 2025).
Read-outs that look alike come from different tables or passages of the source.

System: RS4; 11 with G101V mutation
Experiment: In vitro anti-proliferation assay (ATPlite luminescence) in BCL-2-dependent ALL cell line RS4;11 with G101V mutation
Assay type: cell-based
Settings: read-out: RS411-G101V IC50
Summary of the method: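 IC50 came from luminescent ATP quantification (ATPlite) following cell lysis. Compound dose ranges were applied for roughly 72 h to about 1×10^4 G101V-mutant RS4;11 cells per well, in 10% FBS medium.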

[1] = cellular anti-proliferative IC50, about 72 hours, medium with 10% FBS, ATPlite

| SMILES | IC50 [1] [nM] | IC50 (Homo sapiens, RS4-11, 72 h) [nM] |
| --- | --- | --- |
| CC(C)Oc1ccccc1[C@@H]1CN([C@H](C)c2ccc(F)c(F)c2)CCN1C1CC2(CCN(c3ccc(C(=O)NS(=O)(=O)c4cc5c(c([N+](=O)[O-])c4)N[C@H](C4CCOCC4)CO5)c(N4c5cc6cc[nH]c6nc5O[C@H]5COCC[C@@H]54)c3)CC2)C1 [Example 242, 4-{2-[(2R)-4-[(1R)-1-(3,4-difluorophenyl)ethyl]-2-(2-isopropoxyphenyl)piperazin-1-yl]-7-azaspiro[3.5]nonan-7-yl}-2-[(3R,8S)-2,5-dioxa-9,15,17-triazatetracyclo[8.7.0.0^{3,8}.0^{12,16}]heptadeca-1(10),11,13,16-tetraen-9-yl]-N-[(3R)-5-nitro-3-(oxan-4-yl)-3,4-dihydro-2H-1,4-benzoxazin-7-ylsulfonyl]benzamide] | 97.8 |  |
| CC(C)Oc1ccccc1[C@@H]1CN([C@@H](C)c2ccc(F)c(F)c2)CCN1C1CC2(CCN(c3ccc(C(=O)NS(=O)(=O)c4cc5c(c([N+](=O)[O-])c4)N[C@H](C4CCOCC4)CO5)c(N4c5cc6cc[nH]c6nc5O[C@H]5COCC[C@@H]54)c3)CC2)C1 [Example 243, 4-{2-[(2R)-4-[(1S)-1-(3,4-difluorophenyl)ethyl]-2-(2-isopropoxyphenyl)piperazin-1-yl]-7-azaspiro[3.5]nonan-7-yl}-2-[(3R,8S)-2,5-dioxa-9,15,17-triazatetracyclo[8.7.0.0^{3,8}.0^{12,16}]heptadeca-1(10),11,13,16-tetraen-9-yl]-N-[(3R)-5-nitro-3-(oxan-4-yl)-3,4-dihydro-2H-1,4-benzoxazin-7-ylsulfonyl]benzamide] | 22.2 |  |
| CC(C)Oc1ccccc1[C@@H]1CN(S(=O)(=O)c2ccc(F)c(F)c2)CCN1C1CC2(CCN(c3ccc(C(=O)NS(=O)(=O)c4cc5c(c([N+](=O)[O-])c4)N[C@H](C4CCOCC4)CO5)c(N4c5cc6cc[nH]c6nc5O[C@H]5COCC[C@@H]54)c3)CC2)C1 [Example 245, 4-(2-((R)-4-((3,4-difluorophenyl)sulfonyl)-2-(2-isopropoxyphenyl)piperazin-1-yl)-7-azaspiro[3.5]nonan-7-yl)-N-(((R)-5-nitro-3-(tetrahydro-2H-pyran-4-yl)-3,4-dihydro-2H-benzo[b][1,4]oxazin-7-yl)sulfonyl)-2-((5aS,9aR)-6,7,9,9a-tetrahydro-1H-pyrano[3,4-b]pyrrolo[3′,2′:5,6]pyrido[3,2-e][1,4]oxazin-5(5aH)-yl)benzamide] |  | 290 |
| CC[C@H](c1ccc(F)c(F)c1)N1CCN(C2CC3(CCN(c4ccc(C(=O)NS(=O)(=O)c5cc6c(c([N+](=O)[O-])c5)N[C@H](C5CCOCC5)CO6)c(N5c6cc7cc[nH]c7nc6O[C@H]6COCC[C@@H]65)c4)CC3)C2)[C@H](c2ccccc2OC(C)C)C1 [Example 246, 4-(2-((R)-4-((R)-1-(3,4-difluorophenyl)propyl)-2-(2-isopropoxyphenyl)piperazin-1-yl)-7-azaspiro[3.5]nonan-7-yl)-N-(((R)-5-nitro-3-(tetrahydro-2H-pyran-4-yl)-3,4-dihydro-2H-benzo[b][1,4]oxazin-7-yl)sulfonyl)-2-((5aS,9aR)-6,7,9,9a-tetrahydro-1H-pyrano[3,4-b]pyrrolo[3′,2′:5,6]pyrido[3,2-e][1,4]oxazin-5(5aH)-yl)benzamide] |  | 209 |
| CC[C@@H](c1ccc(F)c(F)c1)N1CCN(C2CC3(CCN(c4ccc(C(=O)NS(=O)(=O)c5cc6c(c([N+](=O)[O-])c5)N[C@H](C5CCOCC5)CO6)c(N5c6cc7cc[nH]c7nc6O[C@H]6COCC[C@@H]65)c4)CC3)C2)[C@H](c2ccccc2OC(C)C)C1 [Example 247, 4-(2-((R)-4-((S)-1-(3,4-difluorophenyl)propyl)-2-(2-isopropoxyphenyl)piperazin-1-yl)-7-azaspiro[3.5]nonan-7-yl)-N-(((R)-5-nitro-3-(tetrahydro-2H-pyran-4-yl)-3,4-dihydro-2H-benzo[b][1,4]oxazin-7-yl)sulfonyl)-2-((5aS,9aR)-6,7,9,9a-tetrahydro-1H-pyrano[3,4-b]pyrrolo[3′,2′:5,6]pyrido[3,2-e][1,4]oxazin-5(5aH)-yl)benzamide] |  | 45.7 |
| CC(C)Oc1ccccc1[C@@H]1CN([C@@H]2COCc3c2ccc(F)c3F)CCN1C1CC2(CCN(c3ccc(C(=O)NS(=O)(=O)c4cc5c(c([N+](=O)[O-])c4)N[C@H](C4CCOCC4)CO5)c(N4c5cc6cc[nH]c6nc5O[C@H]5COCC[C@@H]54)c3)CC2)C1 [Example 248, 4-{2-[(2R)-4-[(4S)-7,8-difluoro-3,4-dihydro-1H-2-benzopyran-4-yl]-2-(2-isopropoxyphenyl)piperazin-1-yl]-7-azaspiro[3.5]nonan-7-yl}-2-[(3R,8S)-2,5-dioxa-9,15,17-triazatetracyclo[8.7.0.0^{3,8}.0^{12,16}]heptadeca-1(10),11,13,16-tetraen-9-yl]-N-[(3R)-5-nitro-3-(oxan-4-yl)-3,4-dihydro-2H-1,4-benzoxazin-7-ylsulfonyl]benzamide] | 9.68 |  |
| CC(C)Oc1ccccc1[C@@H]1CN([C@H]2COCc3c2ccc(F)c3F)CCN1C1CC2(CCN(c3ccc(C(=O)NS(=O)(=O)c4cc5c(c([N+](=O)[O-])c4)N[C@H](C4CCOCC4)CO5)c(N4c5cc6cc[nH]c6nc5O[C@H]5COCC[C@@H]54)c3)CC2)C1 [Example 249, 4-{2-[(2R)-4-[(4R)-7,8-difluoro-3,4-dihydro-1H-2-benzopyran-4-yl]-2-(2-isopropoxyphenyl)piperazin-1-yl]-7-azaspiro[3.5]nonan-7-yl}-2-[(3R,8S)-2,5-dioxa-9,15,17-triazatetracyclo[8.7.0.0^{3,8}.0^{12,16}]heptadeca-1(10),11,13,16-tetraen-9-yl]-N-[(3R)-5-nitro-3-(oxan-4-yl)-3,4-dihydro-2H-1,4-benzoxazin-7-ylsulfonyl]benzamide] | 12 |  |
| COc1c(N2CCOCC2)ncc2c1COC[C@H]2N1CCN(C2CC3(CCN(c4ccc(C(=O)NS(=O)(=O)c5cc6c(c([N+](=O)[O-])c5)N[C@H](C5CCOCC5)CO6)c(N5c6cc7cc[nH]c7nc6O[C@H]6COCC[C@@H]65)c4)CC3)C2)[C@H](c2ccccc2OC(C)C)C1 [Example 250, 2-[(3R,8S)-2,5-dioxa-9,15,17-triazatetracyclo[8.7.0.0^{3,8}.0^{12,16}]heptadeca-1(10),11,13,16-tetraen-9-yl]-4-{2-[(2R)-2-(2-isopropoxyphenyl)-4-[(4S)-8-methoxy-7-(morpholin-4-yl)-1H,3H,4H-pyrano[4,3-c]pyridin-4-yl]piperazin-1-yl]-7-azaspiro[3.5]nonan-7-yl}-N-[(3R)-5-nitro-3-(oxan-4-yl)-3,4-dihydro-2H-1,4-benzoxazin-7-ylsulfonyl]benzamide] | 10.1 |  |
| COc1c(N2CCOC[C@@H]2C)ncc2c1COC[C@@H]2N1CCN(C2CC3(CCN(c4ccc(C(=O)NS(=O)(=O)c5cc6c(c([N+](=O)[O-])c5)N[C@H](C5CCOCC5)CO6)c(N5c6cc7cc[nH]c7nc6O[C@H]6COCC[C@@H]65)c4)CC3)C2)[C@H](c2ccccc2OC(C)C)C1 [Example 251, 2-[(3R,8S)-2,5-dioxa-9,15,17-triazatetracyclo[8.7.0.0^{3,8}.0^{12,16}]heptadeca-1(10),11,13,16-tetraen-9-yl]-4-{2-[(2R)-2-(2-isopropoxyphenyl)-4-[(4R)-8-methoxy-7-[(3S)-3-methylmorpholin-4-yl]-1H,3H,4H-pyrano[4,3-c]pyridin-4-yl]piperazin-1-yl]-7-azaspiro[3.5]nonan-7-yl}-N-[(3R)-5-nitro-3-(oxan-4-yl)-3,4-dihydro-2H-1,4-benzoxazin-7-ylsulfonyl]benzamide] | 26.9 |  |
| Cc1ccccc1[C@@H]1CN(Cc2cnc(N3CCOC[C@@H]3C)c3c2C(C)(C)CCO3)CCN1C1CC2(CCN(c3ccc(C(=O)NS(=O)(=O)c4cc5c(c([N+](=O)[O-])c4)N[C@H](C4CCOCC4)CO5)c(N4c5cc6cc[nH]c6nc5O[C@H]5COCC[C@@H]54)c3)CC2)C1 [Example 252, 4-(2-((R)-4-((4,4-dimethyl-8-((S)-3-methylmorpholino)-3,4-dihydro-2H-pyrano[2,3-c]pyridin-5-yl)methyl)-2-(o-tolyl)piperazin-1-yl)-7-azaspiro[3.5]nonan-7-yl)-N-(((R)-5-nitro-3-(tetrahydro-2H-pyran-4-yl)-3,4-dihydro-2H-benzo[b][1,4]oxazin-7-yl)sulfonyl)-2-((5aS,9aR)-6,7,9,9a-tetrahydro-1H-pyrano[3,4-b]pyrrolo[3′,2′:5,6]pyrido[3,2-e][1,4]oxazin-5(5aH)-yl)benzamide] |  | 1.88 |
| CC(C)Oc1ccccc1[C@@H]1CN(Cc2cccnc2)CCN1C1CC2(CCN(c3ccc(C(=O)NS(=O)(=O)c4cc5c(c([N+](=O)[O-])c4)N[C@H](C4CCOCC4)CO5)c(N4c5cc6cc[nH]c6nc5O[C@H]5COCC[C@@H]54)c3)CC2)C1 [Example 253, 4-(2-((R)-2-(2-isopropoxyphenyl)-4-(pyridin-3-ylmethyl)piperazin-1-yl)-7-azaspiro[3.5]nonan-7-yl)-N-(((R)-5-nitro-3-(tetrahydro-2H-pyran-4-yl)-3,4-dihydro-2H-benzo[b][1,4]oxazin-7-yl)sulfonyl)-2-((5aS,9aR)-6,7,9,9a-tetrahydro-1H-pyrano[3,4-b]pyrrolo[3′,2′:5,6]pyrido[3,2-e][1,4]oxazin-5(5aH)-yl)benzamide] |  | 10.2 |
| Cc1ccc(CN2CCN(C3CC4(CCN(c5ccc(C(=O)NS(=O)(=O)c6cc7c(c([N+](=O)[O-])c6)N[C@H](C6CCOCC6)CO7)c(N6c7cc8cc[nH]c8nc7O[C@H]7COCC[C@@H]76)c5)CC4)C3)[C@H](c3ccccc3OC(C)C)C2)cn1 [Example 254, 4-(2-((R)-2-(2-isopropoxyphenyl)-4-((6-methylpyridin-3-yl)methyl)piperazin-1-yl)-7-azaspiro[3.5]nonan-7-yl)-N-(((R)-5-nitro-3-(tetrahydro-2H-pyran-4-yl)-3,4-dihydro-2H-benzo[b][1,4]oxazin-7-yl)sulfonyl)-2-((5aS,9aR)-6,7,9,9a-tetrahydro-1H-pyrano[3,4-b]pyrrolo[3′,2′:5,6]pyrido[3,2-e][1,4]oxazin-5(5aH)-yl)benzamide] |  | 3.19 |
